Assay results published in the NIST ThermoML archive (doi:10.1016/j.jct.2010.04.013).

Experiment: mn = molality of the nth substance listed, in mol/kg
Details: 101 kPa, Liquid; for mass density: Vibrating tube method; for speed of sound: Pulse-echo method

C[S+](C)[O-] [dimethyl sulfoxide] + [Ca+2].[O-][Cl+3]([O-])([O-])[O-].[O-][Cl+3]([O-])([O-])[O-]
m2 = 0
Details	mass density [kg/m3]
293.15 K	1100.21
298.15 K	1095.18
303.15 K	1090.16
313.15 K	1080.12
323.15 K	1070.08
333.15 K	1060.02

C[S+](C)[O-] [dimethyl sulfoxide] + [Mg+2].[O-][Cl+3]([O-])([O-])[O-].[O-][Cl+3]([O-])([O-])[O-]
m2 = 0
Details	mass density [kg/m3]
293.15 K	1100.21
298.15 K	1095.18
303.15 K	1090.16
313.15 K	1080.12
323.15 K	1070.08
333.15 K	1060.02

C[S+](C)[O-] [dimethyl sulfoxide] + [O-][Cl+3]([O-])([O-])[O-].[O-][Cl+3]([O-])([O-])[O-].[Sr+2]
m2 = 0
Details	mass density [kg/m3]
293.15 K	1100.22
298.15 K	1095.18
303.15 K	1090.17
313.15 K	1080.12
323.15 K	1070.08
333.15 K	1060.03

[Mg+2].[O-][Cl+3]([O-])([O-])[O-].[O-][Cl+3]([O-])([O-])[O-] [magnesium perchlorate] + CO
Details	mass density, 283.15 K [kg/m3]	mass density, 288.15 K [kg/m3]	mass density, 293.15 K [kg/m3]	mass density, 298.15 K [kg/m3]	mass density, 303.15 K [kg/m3]	mass density, 308.15 K [kg/m3]	mass density, 313.15 K [kg/m3]	speed of sound, 298.15 K [m/s]
m1 = 0.05219	809.719	805.077	800.41	795.738	791.047	786.336	781.598	1109.9
m1 = 0.06927	812.714	808.079	803.422	798.76	794.077	789.377	784.647	1112.6
m1 = 0.08495	815.487	810.862	806.214	801.554	796.877	792.189	787.47	1115.2
m1 = 0.1015	818.369	813.747	809.112	804.466	799.801	795.117	790.405	1117.5
m1 = 0.1173	821.156	816.545	811.914	807.277	802.62	797.944	793.24	1120
m1 = 0.1339	824.082	819.477	814.852	810.224	805.578	800.91	796.216	1122.5
m1 = 0.1663	829.827	825.238	820.63	816.008	811.382	806.732	802.054	1127.2
m1 = 0.1999	835.828	831.249	826.659	822.059	817.443	812.807	808.147	1132.5
m1 = 0.2312	841.439	836.878	832.301	827.71	823.106	818.493	813.847	1137.2
m1 = 0.2628	847.212	842.663	838.096	833.522	828.937	824.333	819.703	1142
m1 = 0.2917	852.468	847.932	843.38	838.819	834.243	829.645	825.025	1146.5
m1 = 0.3234	858.304	853.784	849.245	844.698	840.139	835.559	830.96	1151.8
